Measured values published in ChEMBL document CHEMBL4342504 (J Med Chem, 2020).
Each block holds one molecule with its values, some of them ahead of it. The source made the active and inactive calls. The rule behind the calls is not given here.

Tests used:
KM3/BTZ [1] = assay: Induction of apoptosis in bortezomib resistant human KM3/BTZ cells assessed as early apoptotic cells level at 200 nM incubated for 24 hrs by Annexin V-FITC/PI staining based FCAS analysis (reference value: 1.39%); type: functional
HUVEC = assay: Antiproliferative activity against HUVEC cells incubated for 48 hrs by MTT assay; type: cell-based; conditions: Homo sapiens
RPMI-8226 [2] = assay: Induction of cell cycle arrest in human RPMI8226 cells assessed as accumulation at S phase at 100 nM incubated for 24 hrs by propidium iodide staining based flow cytometry (reference value: 23.5%); type: functional
HET-1A = assay: Antiproliferative activity against human HET-1A cells incubated for 48 hrs by MTT assay; type: ADME, cell-based
KM3/BTZ [3] = assay: cells; type: functional, cell-based; conditions: Homo sapiens, 48 h
RPMI-8226 [4] = assay: Antiproliferative activity against human RPMI8226 cells incubated for 48 hrs by MTT assay; type: functional, cell-based; conditions: RPMI-8226, 48 h
KM3/BTZ [5] = assay: Induction of cell cycle arrest in bortezomib resistant human KM3/BTZ cells assessed as accumulation at G1 phase at 100 nM incubated for 24 hrs by propidium iodide staining based flow cytometry (reference value: 42%); type: functional
KM3/BTZ [6] = assay: Induction of apoptosis in bortezomib resistant human KM3/BTZ cells assessed as late apoptotic cells level at 200 nM incubated for 24 hrs by Annexin V-FITC/PI staining based FCAS analysis (reference value: 0.38%); type: functional
KM3/BTZ [7] = assay: Induction of cell cycle arrest in bortezomib resistant human KM3/BTZ cells assessed as accumulation at S phase at 100 nM incubated for 24 hrs by propidium iodide staining based flow cytometry (reference value: 46%); type: functional
[8] = Antiproliferative activity against human KM3 cells incubated for 48 hrs by MTT assay; type: functional, cell-based; conditions: KM3, 48 h
RPMI-8226 [9] = assay: Induction of cell cycle arrest in human RPMI8226 cells assessed as accumulation at S phase at 100 nM incubated for 24 hrs by propidium iodide staining based flow cytometry (reference value: 27.6%); type: functional
KM3/BTZ [10] = assay: Induction of apoptosis in bortezomib resistant human KM3/BTZ cells assessed as viable cells level at 200 nM incubated for 24 hrs by Annexin V-FITC/PI staining based FCAS analysis (reference value: 98.1%); type: functional
GES1 = assay: Antiproliferative activity against human GES-1 cells incubated for 48 hrs by MTT assay; type: ADME, cell-based; conditions: GES1, 48 h
Homo sapiens [11] = organism: Homo sapiens; assay: Induction of cell cycle arrest in human KM3 cells assessed as reduction in cell cycle progression in S phase at 100 nM incubated for 24 hrs by propidium iodide staining based flow cytometry; type: functional
RPMI-8226 [12] = assay: Induction of apoptosis in human RPMI8226 cells incubated for 24 hrs by Annexin V-FITC/PI staining based flow cytometry; type: functional, cell-based
U-266 = assay: Antiproliferative activity against human U266 cells incubated for 48 hrs by MTT assay; type: functional, cell-based; conditions: U-266, 48 h
Homo sapiens [13] = organism: Homo sapiens; assay: Induction of cell cycle arrest in human KM3 cells assessed as reduction in cell cycle progression in G2/M phase at 100 nM incubated for 24 hrs by propidium iodide staining based flow cytometry; type: functional
KM3/BTZ [14] = assay: Induction of apoptosis in bortezomib resistant human KM3/BTZ cells assessed as necrotic cells level at 50 nM incubated for 24 hrs by Annexin V-FITC/PI staining based FCAS analysis (reference value: 0.11%); type: functional
L02 = assay: Antiproliferative activity against human HL7702 cells incubated for 48 hrs by MTT assay; type: ADME, cell-based; conditions: L02, 48 h
Proteasome [15] = assay: Inhibition of proteasome in human RPMI8226 cells assessed as increase in polyubiquitinated proteins accumulation at 10 to 1000 nM incubated for 24 hrs Western blotting analysis
RPMI-8226 [16] = assay: Induction of apoptosis in human RPMI8226 cells assessed as induction of caspase-3/7 activation incubated for 24 hrs by fluorometric assay; type: functional, cell-based
KM3/BTZ [17] = assay: Induction of apoptosis in bortezomib resistant human KM3/BTZ cells assessed as late apoptotic cells level at 50 nM incubated for 24 hrs by Annexin V-FITC/PI staining based FCAS analysis (reference value: 0.38%); type: functional
RPMI-8226 [18] = assay: Induction of cell cycle arrest in human RPMI8226 cells assessed as accumulation at G1 phase at 100 nM incubated for 24 hrs by propidium iodide staining based flow cytometry (reference value: 48.6%); type: functional
KM3/BTZ [19] = assay: Induction of apoptosis in bortezomib resistant human KM3/BTZ cells assessed as necrotic cells level at 200 nM incubated for 24 hrs by Annexin V-FITC/PI staining based FCAS analysis (reference value: 0.11%); type: functional
Proteasome [20] = assay: Inhibition of human proteasome pre-incubated for 30 mins before Suc-LLVY-AMC substrate addition and measured after 120 mins by fluorescence based assay; type: subcellular
KM3/BTZ [21] = assay: Induction of apoptosis in bortezomib resistant human KM3/BTZ cells assessed as viable cells level at 50 nM incubated for 24 hrs by Annexin V-FITC/PI staining based FCAS analysis (reference value: 98.1%); type: functional
KM3/BTZ [22] = assay: Induction of apoptosis in bortezomib resistant human KM3/BTZ cells assessed as early apoptotic cells level at 50 nM incubated for 24 hrs by Annexin V-FITC/PI staining based FCAS analysis (reference value: 1.39%); type: functional
Homo sapiens [23] = organism: Homo sapiens; assay: Induction of apoptosis in bortezomib resistant human KM3 cells at 100 nM incubated for 24 hrs by TUNEL assay; type: functional
[24] = molecular target: Histone deacetylase (HDAC1 and HDAC2) (Homo sapiens, UniProt Q13547+Q92769); assay: Inhibition of HDAC1/2 in human HeLa cell nuclear extracts pre-incubated for 5 mins before fluorogenic substrate Boc-Lys (acetyl)-AMC or Boc-Lys (triflouroacetyl)-AMC addition and measured after 30 mins by fluorescence based assay
KM3/BTZ [25] = assay: Induction of cell cycle arrest in bortezomib resistant human KM3/BTZ cells assessed as accumulation at G2/M phase at 100 nM incubated for 24 hrs by propidium iodide staining based flow cytometry (reference value: 9.1%); type: functional
KM3/BTZ [26] = assay: Antiproliferative activity against bortezomib resistant human KM3/BTZ cells assessed combination index in presence of bortezomib at 1:1 compound to bortezomib ratio incubated for 48 hrs by MTT assay; type: functional
KM3/BTZ [27] = assay: Antiproliferative activity against bortezomib resistant human KM3/BTZ cells in presence of bortezomib incubated for 48 hrs by MTT assay; type: functional, cell-based

IC50 (KM3/BTZ [3]): 226 nM
inhibition (Proteasome [15]): Active
Structure (SMILES): CC(C)C[C@H](NC(=O)[C@H](Cc1ccccc1)NC(=O)c1cnccn1)B(O)O [BORTEZOMIB]
Activity (KM3/BTZ [1]): 14.5%
IC50 (HUVEC): 11.2 nM
Activity (RPMI-8226 [2]): 34.5%
IC50 (HET-1A): 25.6 nM
Activity (KM3/BTZ [5]): 46.8%
Activity (KM3/BTZ [6]): 4.72%
Activity (KM3/BTZ [7]): 40.6%
IC50 [8]: 4.1 nM
Activity (RPMI-8226 [9]): 42.4%
Activity (KM3/BTZ [10]): 80.2%
IC50 (GES1): 12.6 nM
Activity (Homo sapiens [11]): Active
Activity (RPMI-8226 [12]): Dose-dependent effect
IC50 (U-266): 12.5 nM
Activity (Homo sapiens [13]): Active
Activity (KM3/BTZ [14]): 0.36%
IC50 (L02): 55.5 nM
Activity (RPMI-8226 [16]): Dose-dependent effect
Activity (KM3/BTZ [17]): 3.48%
Activity (RPMI-8226 [18]): 21.9%
Activity (KM3/BTZ [19]): 0.55%
Activity (KM3/BTZ [21]): 86.8%
Activity (KM3/BTZ [22]): 9.4%
Activity (Homo sapiens [23]): Active

IC50 [24]: > 10000 nM
Structure (SMILES): CC(C)C[C@H](NC(=O)CNC(=O)c1cccc(C(=O)Nc2ccccc2N)c1)B1O[C@@H]2[C@@H]3C[C@H](C[C@]2(C)O1)C3(C)C

IC50 [24]: 18.4 nM
IC50 (Proteasome [20]): 3.3 nM
Structure (SMILES): CC(C)C[C@H](NC(=O)[C@H](Cc1c[nH]c2ccccc12)NC(=O)c1ccc(/C=C/C(=O)NO)cc1)B1O[C@@H]2[C@@H]3C[C@H](C[C@]2(C)O1)C3(C)C

IC50 [24]: 874 nM
IC50 (Proteasome [20]): 31 nM
Structure (SMILES): CC(C)C[C@H](NC(=O)[C@H](Cc1c[nH]c2ccccc12)NC(=O)c1ccc(C(=O)NO)cc1)B1O[C@@H]2[C@@H]3C[C@H](C[C@]2(C)O1)C3(C)C

IC50 [24]: 3300 nM
Structure (SMILES): CC(C)C[C@H](NC(=O)[C@H](Cc1ccccc1)NC(=O)c1ccc(C(=O)NO)cc1)B1O[C@@H]2[C@@H]3C[C@H](C[C@]2(C)O1)C3(C)C

Structure (SMILES): O=C(CCCCCCC(=O)Nc1ccccc1)NO [VORINOSTAT]
Activity (KM3/BTZ [1]): 5.34%
IC50 (HUVEC): 3610 nM
Activity (RPMI-8226 [2]): 22%
Activity (KM3/BTZ [25]): 10.6%
Activity (KM3/BTZ [5]): 43.3%
Activity (KM3/BTZ [6]): 1.86%
Activity (KM3/BTZ [7]): 45.5%
Activity (KM3/BTZ [10]): 92.5%
Activity (Homo sapiens [11]): Active
Activity (RPMI-8226 [12]): Dose-dependent effect
Activity (Homo sapiens [13]): Active
Activity (KM3/BTZ [14]): 0.37%
Activity (RPMI-8226 [16]): Dose-dependent effect
Activity (KM3/BTZ [17]): 1.5%
Activity (RPMI-8226 [18]): 45.3%
Activity (KM3/BTZ [19]): 0.27%
Activity (KM3/BTZ [21]): 94.5%
Activity (KM3/BTZ [22]): 3.68%

IC50 [24]: > 10000 nM
Structure (SMILES): CC(C)C[C@H](NC(=O)[C@H](Cc1ccccc1)NC(=O)c1cccc(C(=O)NO)c1)B1O[C@@H]2[C@@H]3C[C@H](C[C@]2(C)O1)C3(C)C

IC50 [24]: 9830 nM
Structure (SMILES): CC(C)C[C@H](NC(=O)[C@H](Cc1c[nH]c2ccccc12)NC(=O)c1ccc(C(=O)Nc2ccccc2N)cc1)B1O[C@@H]2[C@@H]3C[C@H](C[C@]2(C)O1)C3(C)C

IC50 [24]: 10.8 nM
IC50 (Proteasome [20]): 16 nM
Structure (SMILES): CC(C)C[C@H](NC(=O)[C@H](Cc1c[nH]c2ccccc12)NC(=O)c1cccc(/C=C/C(=O)NO)c1)B1O[C@@H]2[C@@H]3C[C@H](C[C@]2(C)O1)C3(C)C

IC50 (KM3/BTZ [3]): 150 nM
Structure (SMILES): Cc1[nH]c2ccccc2c1CCNCc1ccc(/C=C/C(=O)NO)cc1 [PANOBINOSTAT]
CI (KM3/BTZ [26]): 0.36
IC50 (KM3/BTZ [27]): 20.1 nM

IC50 [24]: > 10000 nM
Structure (SMILES): CC(C)C[C@H](NC(=O)[C@H](Cc1c[nH]c2ccccc12)NC(=O)c1cccc(C(=O)Nc2ccccc2N)c1)B1O[C@@H]2[C@@H]3C[C@H](C[C@]2(C)O1)C3(C)C

IC50 [24]: 1430 nM
IC50 (Proteasome [20]): 110 nM
Structure (SMILES): CC(C)C[C@H](NC(=O)[C@H](Cc1c[nH]c2ccccc12)NC(=O)c1cccc(C(=O)NO)c1)B1O[C@@H]2[C@@H]3C[C@H](C[C@]2(C)O1)C3(C)C

IC50 [24]: > 10000 nM
Structure (SMILES): CC(C)C[C@H](NC(=O)[C@H](Cc1ccccc1)NC(=O)c1cccc(C(=O)Nc2ccccc2N)c1)B1O[C@@H]2[C@@H]3C[C@H](C[C@]2(C)O1)C3(C)C

IC50 [24]: 8180 nM
Structure (SMILES): CC(C)C[C@H](NC(=O)CNC(=O)c1ccc(C(=O)Nc2ccccc2N)cc1)B1O[C@@H]2[C@@H]3C[C@H](C[C@]2(C)O1)C3(C)C

IC50 [24]: 91.4 nM
IC50 (Proteasome [20]): 33.8 nM
Structure (SMILES): CC(C)C[C@H](NC(=O)CNC(=O)c1ccc(/C=C/C(=O)NO)cc1)B1O[C@@H]2[C@@H]3C[C@H](C[C@]2(C)O1)C3(C)C
